Test results as given in patent publication US20230201157A1, “COMPOSITIONS OF CANNABINOIDS AND METHODS OF USING SAME” (ASANA BIO GROUP LTD., priority 2020, published 2023).

Key:
RAW 264.7 cells [1] = experiment: MTT viability assay; assay type: cell-based, mouse; conditions: for cell viability: 50 µM of single cannabinoid (FIG. 1)
Method: (§1) Cell lines were cultured according to standard mammalian tissue culture protocols and sterile technique. Adherent human epithelial endometriosis 12Z and mouse monocytes RAW 264.7 cell lines were cultured in high glucose Dulbecco’s Modified Eagle Medium (DMEM) supplemented with 1% sodium pyruvate. Human monocytes THP-1 cell line were cultured in RPMI medium 1640. All media was supplemented with 10% fetal bovine serum, streptomycin […], penicillin (100 U/ml) and Nystatin (12.5 U/ml). Cells were incubated in 5% CO2 at 37° C. All tissue culture cells were maintained in 75 cm^2 cell culture treated flask (Eppendorf) and all the media and supplements were obtained from Biological Industries. Treatment were performed by plating cells in a 96 micro well delta surface plates (Eppendorf) in a starting confluence of 1 × 10^4 cells/well.
The viability of the cells following treatment was determined using a commercially available MTT assay kit (Abcam, ab 146345) and performed according to manufacturer’s instructions. Briefly, cells were seeded in a 96-well plate at a density of 1 × 10^4 cells/well (n=4) in 100 µl cell specific media. After overnight plating, cells were exposed to varying concentrations of cannabis samples in 100 µl of specific media. Then, plates were incubated in a humidified atmosphere containing 5% CO2 in air at 37° C. for 24 hours. According to the MTT standard protocol, after 24 h treatment, the media was removed, and all cells were incubated with serum-free media containing 0.5 mg/ml MTT for 4 hours at the incubator. The MTT purple crystals formed by the viable cells were dissolved using isopropanol containing 0.04 mol/L HCl. The quantification was determined by measuring the optical density at 570 nm in a spectrophotometer reader (Spark, Tecan). Results were presented as proportional viability (%) by comparing between treated and untreated groups. Cytotoxic potential of an extract was determined according to the following criteria: Non-cytotoxic -Viability is ≥ 70% of vehicle control; Cytotoxic - Viability is reduced to less than 70% of vehicle control.

RAW 264.7 cells [2] = experiment: Nitric oxide detection assay (Griess) in LPS-stimulated cells; assay type: cell-based, mouse; conditions: for nitric oxide production: 50 µM of single cannabinoid (FIG. 1); for nitric oxide production while minimally affecting cell viability: lower dose, 25 µM, compared with effect at 50 µM (FIG. 1)
Method: as §1
RAW 264.7 cells were seeded in a 96-well plate at a density of 1 × 10^4 cells/well (n=4) in 100 µl cell specific media (DMEM high glucose supplemented with 10% FBS, 1% PSN and 1% Sodium pyruvate). After 24 hours, cells were treated with varying concentrations of cannabis samples using specific media containing 5% FBS. After 1 hour, treated and untreated cells, were stimulated by Lipopolysaccharides (LPS) at a final concentration of 1 µg/ml. Cells supernatants were harvest after 24 h for nitric oxide radical (NO•) assay by addition of 50 µl of the supernatant to an equal volume of Griess reagent (1% sulfanilamide, 0.1% naphthalene diamine and 2% H3PO4). After 10 min of incubation, the resultant color was measured at 540 nm. Results were presented as proportional (%) by comparing between treated and untreated groups. Anti-inflammatory potential of an extract in preventing Nitric oxide production was determined by the ratio between nitric oxide and cell viability values: Ratio < 0.5 = High effect; Ratio between 0.5-0.7 = Moderate effect; Ratio […] = Low effect; and Ratio > 1 = No effect.

Structure (SMILES) | cell viability (exception to 'no substantial effect on cell viability') (RAW 264.7 cells [1]; mouse, 24 h, 50 µM) | nitric oxide production (RAW 264.7 cells [2]) | cell viability (RAW 264.7 cells [1]) | nitric oxide production while minimally affecting cell viability (RAW 264.7 cells [2])
O=c1cc(-c2ccc(O)cc2)oc2cc(O)cc(O)c12 [Apigenin, apigenin] | excluding 50 µM of Apigenin |  |  | 
CCCCCc1cc(O)c2c(c1)OC(C)(CCC=C(C)C)C=C2 (stereo not drawn) [CBC, cannabichromene] |  | reduced nitric oxide production | minimally affecting cell viability or not affecting cell viability at all | 
CCCCCc1cc2c(c(O)c1C(=O)O)C=CC(C)(CCC=C(C)C)O2 (stereo not drawn) [CBCA, cannabichromenic acid] |  | reduced nitric oxide production | minimally affecting cell viability or not affecting cell viability at all | comparable effect
CCCCCc1cc(O)c(C/C=C(\C)CCC=C(C)C)c(O)c1 [CBG, cannabigerol] |  | reduced nitric oxide production |  | 
CCCCCc1cc(O)c2c(c1)OC(C)(C)c1ccc(C)cc1-2 [CBN, cannabinol] |  | reduced nitric oxide production | minimally affecting cell viability or not affecting cell viability at all | 
CCCCCc1cc2c(c(O)c1C(=O)O)-c1cc(C)ccc1C(C)(C)O2 [CBNA, cannabinolic acid] |  | reduced nitric oxide production | minimally affecting cell viability or not affecting cell viability at all | comparable effect
CCCCCc1cc2c(c(O)c1C(=O)O)[C@@H]1C=C(C)CC[C@H]1C(C)(C)O2 [THCA, tetrahydrocannabinolic acid] |  | reduced nitric oxide production | minimally affecting cell viability or not affecting cell viability at all | 
CCCc1cc(O)c2c(c1)OC(C)(C)[C@@H]1CCC(C)=C[C@@H]21 [THCV, tetrahydrocannabivarin] |  | reduced nitric oxide production | minimally affecting cell viability or not affecting cell viability at all | 
CCCc1cc2c(c(O)c1C(=O)O)[C@@H]1C=C(C)CC[C@H]1C(C)(C)O2 [THCVA, tetrahydrocannabivarinic acid] |  | reduced nitric oxide production | minimally affecting cell viability or not affecting cell viability at all | 
